Where “and” joins values, the source holds several entries; their conditions need not be identical. Equal values may be shown once.

Data set [1] relates to healthy volunteers. As to the kind of experiment: Double-blind trial, miosis after oral capsule. The format is in vivo, human. Particulars: for % MPE (miosis): oral, individual data, 33 45 mg, NB 35 mg, 39 68 mg. How it is done:
Double-blind, NB hydrochloride and NB-39 controlled, trial of the antinociceptive effect of oral NB-33 in healthy volunteers. Each of the three healthy volunteers was assigned a set of 6 non-transparent gelatin capsules as follows: 2×NB hydrochloride (MW=393.4; 39 mg), 2×NB-33 (MW=451.6; 45 mg) and 2×NB-39 (MW=680.0; 68 mg). Each week a healthy volunteer would receive a pill from the assigned set in a random fashion and take it orally. At T=0 hr, 0.25 hr, 0.5 hr, 1 hr, 1.5 hr, 2 hr, 3 hr and 5 hr followed oral administration a heat pain threshold was measured (hot water at 50° C.) as well as miosis.
(§1) Following one week of a wash out period, each volunteer repeated the protocol until all pills from the assigned set were administered. The individual data for heat pain threshold as % MPE=[(test latency−baseline latency)/(baseline latency)]×100 and for miosis as % MPE=[(test diameter−baseline diameter)/(baseline diameter)]×100 are shown in Table 2 and Table 3 respectively.
(§2) Independent samples t-test was used to compare the means of % MPE analgesia and miosis in the two pairs of samples: NB-33 and NB and NB-33 and NB-39. All analyses were made using SPSS (v.25). • Bold indicates statistical significance at α=0.05

The test system of data set [2] is Sprague-Dawley rats. Description: Antinociceptive activity, cold ethanol tail-flick test after oral gavage. The format is in vivo, rat. For orientation: Hot-plate and tail-flick tests time the reaction to a heat stimulus.
A short description of data set [3]: Stability in human plasma. The following applies: 37° C., acceptance criteria: NLT than 20% of hydrolysis after 4 hrs.
The nature of data set [4]: Stability in the simulated gastro-intestinal fluid (sGIF). Particulars: 0.5% pepsine in 0.1N aqueous HCl, 37° C.; acceptance: NLT 80% of the derivative still intact after 4 hrs.
In data set [5] the test system is healthy volunteers. As to the kind of experiment: Double-blind trial, heat pain threshold (hot water at 50° C.) after oral capsule. It counts as in vivo, human. Particulars: for % MPE (analgesia): oral, individual data, 33 45 mg, NB 35 mg, 39 68 mg. How it is done:
Double-blind, NB hydrochloride and NB-39 controlled, trial of the antinociceptive effect of oral NB-33 in healthy volunteers. […] Each week a healthy volunteer would receive a pill from the assigned set in a random fashion and take it orally. […]
as §1, §2

Regarding `CCCCCCCCCCCCCCCCCCCCCC(=O)Oc1ccc2c3c1OC1C(O)CCC4(O)C(C2)N(CC2CCC2)CCC314` (stereo not drawn) [NB-39, 3-(cyclobutylmethyl)-4a,7-dihydroxy-2,3,4,4a,5,6,7,7a-octahydro-1H-4,12-methanobenzofuro[3,2-e]isoquinolin-9-yl docosanoate], the “% MPE (miosis)” value in data set [1] (0 hr (baseline)) was 0.0 % MPE; in data set [1] (0.25 hr), 10.3 % MPE and 0.0 % MPE and 25.0 % MPE and 12.5 % MPE and 20.0 % MPE and 3.1 % MPE; in data set [1] (0.5 hr), 14.9 % MPE and 0.0 % MPE and 16.7 % MPE and 9.4 % MPE (2×) and 26.7 % MPE; in data set [1] (1 hr), 37.9 % MPE and 6.7 % MPE and 22.2 % MPE and 18.8 % MPE and 36.7 % MPE and 21.9 % MPE; in data set [1] (1.5 hr), 37.9 % MPE and 6.7 % MPE and 33.3 % MPE and 21.9 % MPE and 23.3 % MPE and 25.0 % MPE; in data set [1] (2 hr), 14.9 % MPE and 0.0 % MPE and 25.0 % MPE and 17.2 % MPE and 16.7 % MPE and 6.2 % MPE. The “% MPE (miosis)” value in data set [1] (2.5 hr) is 14.9 % MPE and 6.7 % MPE and 11.1 % MPE and 6.2 % MPE and 13.3 % MPE and 9.4 % MPE; in data set [1] (3 hr) it was 24.1 % MPE and 0.0 % MPE (3×) and 11.1 % MPE and 3.3 % MPE; in data set [1] (5 hr) it was 3.4 % MPE and 0.0 % MPE (2×) and 11.1 % MPE and 13.3 % MPE and 3.1 % MPE. For the same compound, the “effect on pupil dilation (miosis) in humans, in words” value in data set [1] (oral administration) is recorded as “did not significantly affect”. In addition, the “analgesia in rats, in words” value in data set [2] (given orally, compared with equivalent dose of Nalbuphine (parent opioid)) was “inferior”. Moreover, the “Analgesia (rat)” value in data set [2] (oral gavage in sesame oil, 60 uM/kg, one dose, tail-flick at −20° C., cutoff 40 seconds) is “Inactive”. For the same compound, in data set [3], the Stable in plasma result was “No”. Moreover, the “Stable in sGIF” value in data set [4] is “Yes”. The “% MPE (analgesia)” value in data set [5] (0 hr (baseline)) is 0.0 % MPE; in data set [5] (0.25 hr), 0.0 % MPE (2×) and 17.6 % MPE and 13.3 % MPE and 6.2 % MPE and 8.3 % MPE; in data set [5] (0.5 hr), 10.0 % MPE and 11.8 % MPE and 40.0 % MPE and 6.2 % MPE and 55.6 % MPE and 15.0 % MPE; in data set [5] (1 hr) it was 10.0 % MPE and 5.9 % MPE and 73.3 % MPE and 10.8 % MPE and 11.1 % MPE and 5.0 % MPE; in data set [5] (1.5 hr) it was 15.0 % MPE and 11.8 % MPE and 93.3 % MPE and −7.7 % MPE and 19.4 % MPE and 5.0 % MPE; in data set [5] (2 hr), 10.0 % MPE and 23.5 % MPE and 93.3 % MPE and 33.8 % MPE and 0.0 % MPE (2×). Moreover, the “% MPE (analgesia)” value is 5.0 % MPE (2×) and 0.0 % MPE and 46.7 % MPE and −6.2 % MPE and 16.7 % MPE in data set [5] (2.5 hr); 10.0 % MPE and 11.8 % MPE and 40.0 % MPE and 9.2 % MPE and 0.0 % MPE (2×) in data set [5] (3 hr); 0.0 % MPE (2×) and 6.7 % MPE and −9.2 % MPE and −2.8 % MPE and 5.0 % MPE in data set [5] (5 hr). Further, the “analgesia in humans, in words” value in data set [5] (given orally, compared with equivalent dose of Nalbuphine (NB) and NB-39) is recorded as “inferior”.

Source of the values: US11186585B2 (priority 2018, dated 2021).
